System: 743489-274-T-PDC complex spheroid viability
Assay: Anticancer human tumor 743489-274-T-PDC patient-derived renal cell carcinoma cell line growth inhibition
Details: for IC50: curve of first compound; for viability, T/C: stronger effect = lower value
Procedure, shortened: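 Complex spheroids of tumor cells with HUVEC and human MSCs, exposed to iadademstat combined with other agents. Each agent tested in half-log steps from near clinical Cmax (else 10 microM top), DMSO ≤0.25%.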

[1] = second compound 0.1 µM, first compound 0.000316 µM
[2] = second compound 0.1 µM, first compound 0.001 µM
[3] = second compound 0.1 µM, first compound 0.00316 µM
[4] = second compound 0.1 µM, first compound 0.01 µM
[5] = second compound 0.1 µM, first compound 0.0316 µM
[6] = second compound 0.1 µM, first compound 0.1 µM
[7] = second compound 0.316 µM, first compound 0.000316 µM
[8] = second compound 0.316 µM, first compound 0.001 µM
[9] = second compound 0.316 µM, first compound 0.00316 µM
[10] = second compound 0.316 µM, first compound 0.01 µM
[11] = second compound 0.316 µM, first compound 0.0316 µM
[12] = second compound 0.316 µM, first compound 0.1 µM
[13] = second compound 1 µM, first compound 0.000316 µM
[14] = second compound 1 µM, first compound 0.001 µM
[15] = second compound 1 µM, first compound 0.00316 µM
[16] = second compound 1 µM, first compound 0.01 µM
[17] = second compound 1 µM, first compound 0.0316 µM
[18] = second compound 1 µM, first compound 0.1 µM
[19] = second compound 3.16 µM, first compound 0.000316 µM
[20] = second compound 3.16 µM, first compound 0.001 µM
[21] = second compound 3.16 µM, first compound 0.00316 µM
[22] = second compound 3.16 µM, first compound 0.01 µM
[23] = second compound 3.16 µM, first compound 0.0316 µM
[24] = second compound 3.16 µM, first compound 0.1 µM
[25] = second compound 10 µM, first compound 0.000316 µM
[26] = second compound 10 µM, first compound 0.001 µM
[27] = second compound 10 µM, first compound 0.00316 µM
[28] = second compound 10 µM, first compound 0.01 µM
[29] = second compound 10 µM, first compound 0.0316 µM
[30] = second compound 10 µM, first compound 0.1 µM
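Note: spheroids exposed to compounds for 7 days before readout.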
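Throughout, for viability, T/C: 100% = DMSO vehicle control wells.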

CC(C)CC(NC(=O)C(Cc1ccccc1)NC(=O)c1cnccn1)B(O)O (stereo not given) + NC1CC1c1ccc(-c2cccc(O)c2)cc1
IC50 (second compound 0.1 µM): 7.45 nM | IC50 (second compound 0.316 µM): 7.39 nM | IC50 (second compound 1 µM): 7.95 nM | IC50 (second compound 3.16 µM): 7.95 nM | IC50 (second compound 10 µM): 6.77 nM | viability, T/C [1]: 122% | viability, T/C [2]: 102% | viability, T/C [3]: 93.9% | viability, T/C [4]: 33.9% | viability, T/C [5]: 32.3% | viability, T/C [6]: 24.2% | viability, T/C [7]: 119% | viability, T/C [8]: 109% | viability, T/C [9]: 111% | viability, T/C [10]: 25.3% | viability, T/C [11]: 30.7% | viability, T/C [12]: 28.5% | viability, T/C [13]: 113% | viability, T/C [14]: 104% | viability, T/C [15]: 102% | viability, T/C [16]: 35.9% | viability, T/C [17]: 36.8% | viability, T/C [18]: 19.4% | viability, T/C [19]: 123% | viability, T/C [20]: 136% | viability, T/C [21]: 105% | viability, T/C [22]: 36.5% | viability, T/C [23]: 28.5% | viability, T/C [24]: 20.7% | viability, T/C [25]: 110% | viability, T/C [26]: 118% | viability, T/C [27]: 98.7% | viability, T/C [28]: 25% | viability, T/C [29]: 25.5% | viability, T/C [30]: 14.5%

CC(C)CC(NC(=O)CNC(=O)c1cc(Cl)ccc1Cl)B1OC(=O)CC(CC(=O)O)(C(=O)O)O1 (stereo not given) + NC1CC1c1ccc(-c2cccc(O)c2)cc1
IC50 (second compound 0.1 µM): 83.1 nM | IC50 (second compound 0.316 µM): > 100 nM | IC50 (second compound 1 µM): 84.5 nM | IC50 (second compound 3.16 µM): > 100 nM | IC50 (second compound 10 µM): 49.9 nM | viability, T/C [1]: 105% | viability, T/C [2]: 114% | viability, T/C [3]: 97.8% | viability, T/C [4]: 80.7% | viability, T/C [5]: 74.3% | viability, T/C [6]: 45% | viability, T/C [7]: 102% | viability, T/C [8]: 102% | viability, T/C [9]: 94.5% | viability, T/C [10]: 77.6% | viability, T/C [11]: 76.5% | viability, T/C [12]: 52.8% | viability, T/C [13]: 103% | viability, T/C [14]: 106% | viability, T/C [15]: 104% | viability, T/C [16]: 80% | viability, T/C [17]: 66.1% | viability, T/C [18]: 46.6% | viability, T/C [19]: 90% | viability, T/C [20]: 105% | viability, T/C [21]: 102% | viability, T/C [22]: 68.2% | viability, T/C [23]: 60.8% | viability, T/C [24]: 45.2% | viability, T/C [25]: 95.8% | viability, T/C [26]: 108% | viability, T/C [27]: 101% | viability, T/C [28]: 80.1% | viability, T/C [29]: 59.7% | viability, T/C [30]: 37.7%

COc1cc(Nc2ncc3c(n2)-c2ccc(Cl)cc2C(c2c(F)cccc2OC)=NC3)ccc1C(=O)O + NC1CC1c1ccc(-c2cccc(O)c2)cc1
IC50 (second compound 0.1 µM): > 1000 nM | IC50 (second compound 0.316 µM): > 1000 nM | IC50 (second compound 1 µM): > 1000 nM | IC50 (second compound 3.16 µM): > 1000 nM | IC50 (second compound 10 µM): > 1000 nM | viability, T/C [3]: 103% | viability, T/C [4]: 105% | viability, T/C [5]: 82.8% | viability, T/C [6]: 72.2% | viability, T/C (second compound 0.1 µM, first compound 0.316 µM): 82.4% | viability, T/C (second compound 0.1 µM, first compound 1 µM): 81.5% | viability, T/C [9]: 97.7% | viability, T/C [10]: 100% | viability, T/C [11]: 85.4% | viability, T/C [12]: 90% | viability, T/C (second compound 0.316 µM, first compound 0.316 µM): 81.2% | viability, T/C (second compound 0.316 µM, first compound 1 µM): 80.5% | viability, T/C [15]: 111% | viability, T/C [16]: 91.4% | viability, T/C [17]: 84.3% | viability, T/C [18]: 74.3% | viability, T/C (second compound 1 µM, first compound 0.316 µM): 74% | viability, T/C (second compound 1 µM, first compound 1 µM): 82.5% | viability, T/C [21]: 92.9% | viability, T/C [22]: 85.7% | viability, T/C [23]: 89.5% | viability, T/C [24]: 77.6% | viability, T/C (second compound 3.16 µM, first compound 0.316 µM): 72.8% | viability, T/C (second compound 3.16 µM, first compound 1 µM): 79% | viability, T/C [27]: 100% | viability, T/C [28]: 102% | viability, T/C [29]: 85.3% | viability, T/C [30]: 83.5% | viability, T/C (second compound 10 µM, first compound 0.316 µM): 82.9% | viability, T/C (second compound 10 µM, first compound 1 µM): 78.4%

Source: PubChem BioAssay AID1918942 (Molecular Pharmacology Branch, DTP, NCI, 2023)
